Test system: Plasmodium falciparum
Assay: GSK_TCMDC: Inhibition of Plasmodium falciparum 3D7 in whole erythrocytes, using parasite LDH activity as an index of growth.
Type: functional, organism-based
Conditions: Plasmodium falciparum, 3D7

Work on `CCN(CC)CCN(Cc1ccc(-c2ccc(C(F)(F)F)cc2)cc1)C(=O)Cn1c(CCc2cccc(F)c2F)nc(=O)c2ccc(C)cc21` yielded an XC50 of 668 nM.
`CC(C)N1CCC(N(Cc2ccc(-c3ccc(Cl)cc3)cc2)C(=O)Cn2c(CCc3cccc(F)c3F)cc(=O)c3ccccc32)CC1` showed an XC50 of 929 nM.
Compound `CCNc1cc(C(=O)N[C@@H](Cc2ccccc2)[C@H](O)CNCCCc2ccc(OC)cc2)cc(N2CCCC2=O)c1` has an XC50 of 556 nM.
Work on `Cn1cncc1CCN(Cc1ccc(-c2ccc(C(F)(F)F)cc2)cc1)C(=O)Cn1c(CCc2cccc(F)c2F)cc(=O)c2cccnc21` yielded an XC50 of 853 nM.
Compound `COc1cccc(-c2cccc(CNC3CCN(CC4Cn5c(=O)ccc6ccc(F)c4c65)CC3)c2)c1` (stereo not drawn) has an XC50 of 934 nM.
For `COc1cc2nc(N3CCC(CNC(=O)c4cc5ccccc5s4)CC3)nc(N)c2cc1OC`, the XC50 was 293 nM.
Work on `CCCCCCc1cnc2nc(N)nc(N)c2c1C` yielded an XC50 of 194 nM.
`O=C(NCCNc1noc(-c2sccc2Br)n1)c1ccc(Cl)cc1` gave an XC50 of 1170 nM.
For `CC(C)[C@H](NCC(=O)c1ccccc1)C(=O)O`, the XC50 was 783 nM.
Compound `COc1ccc2nccc([C@@H](O)CN3CCC(NCc4cc5oc(=O)n(C)c5cc4F)CC3)c2c1` has an XC50 of 661 nM.
For `O=C(Nc1ccc(Br)cc1)c1cc(Br)ccc1NS(=O)(=O)c1cc(C(F)(F)F)cc(C(F)(F)F)c1`, the XC50 was 885 nM.
For `C=CCN1Cc2c(O)cccc2C(c2ccc(O)c(O)c2)C1` (stereo not drawn), the XC50 was 670 nM.
For `CCCCc1cc(NCc2ccncc2)nc(Nc2ccc(OC)cc2)n1`, the XC50 was 1060 nM.
`CCc1cn2c3c(cc(C(=O)N[C@@H](Cc4ccccc4)[C@H](O)CNCCOC)cc13)N(C)S(=O)(=O)CC2` showed an XC50 of 954 nM.
Work on `CCCCNCC(O)COc1ccccc1-c1ccc(N/N=C/c2cccc3ccccc23)nn1` (stereo not drawn) yielded an XC50 of 891 nM.
For `Cc1cc(N[C@@H](Cc2ccccc2)C(=O)NCCc2ccccc2)nc(NCCc2ccc(F)cc2)n1`, the XC50 was 661 nM.
`CN(Cc1ccc(NC(=O)CCC2CCN(C(=O)/C=C/c3ccc(Cl)c(Cl)c3)CC2)cc1)C1CCOCC1` showed an XC50 of 1730 nM.
`CCCN(CCCCCCNCCc1ccc(Cl)cc1)CCc1ccc(O)c(O)c1` was tested, and the XC50 was 943 nM.
With `COc1ccc2nccc(N3CCC(CCNCc4cc5c(cn4)OCCO5)CC3)c2c1` the XC50 was 874 nM.
Compound `C=C(NC(=O)C1CCCCC1)C(=O)OC` has an XC50 of 849 nM.
Compound `Fc1ccc2[nH]c(-c3cccc(-c4ccc(CNCCN5CCNCC5)cc4)c3)nc2c1` has an XC50 of 904 nM.
With `O=C(NC1CCC(N2CCN(c3cccc(C(F)(F)F)c3)CC2)CC1)c1cc2ccccc2[nH]1` (stereo not drawn) the XC50 was 723 nM.
`CCC(C)c1ccc(NC(=O)c2ccc(S(=O)(=O)Nc3ccc(OC)c(N4CCN(CC5CC5)CC4)c3)cc2)cc1` (stereo not drawn) was tested, and the XC50 was 703 nM.
`COC(=O)c1ccc2nc(-c3cc(-c4cccc(-c5ccccc5)c4)cnc3N)[nH]c2c1` showed an XC50 of 211 nM.
`Cc1ccc(CNC(=O)c2cc3c(=O)n4ccccc4nc3n(CCCN3CCOCC3)c2=N)cc1` gave an XC50 of 1090 nM.
`Cc1ccc(C(=O)NC2C(=O)NC2c2ccccc2)c(C)c1` (stereo not drawn) gave an XC50 of 955 nM.
`C[C@H](NC(=O)c1c(OC2CN(C(c3ccccc3)c3ccccc3)C2)c(-c2ccccc2)nc2ccccc12)C1CCCCC1` gave an XC50 of 978 nM.
With `FC(F)(F)Oc1cccc(CNc2noc(-c3sccc3Br)n2)c1` the XC50 was 875 nM.
Work on `COc1ccc(CN2CCCC(OC(c3ccc(F)cc3)c3ccc(F)cc3)C2)c(O)c1` (stereo not drawn) yielded an XC50 of 607 nM.
`CC(=O)Nc1ccc(OCCN(CC(C)C)c2ccc(C#N)c(C(F)(F)F)c2)c(Cl)c1` was tested, and the XC50 was 786 nM.
For `O=C(Nc1cccc(CN2CCCN(Cc3ccc(O)cc3)CC2)c1)c1ccc2ccccc2n1`, the XC50 was 938 nM.
With `O=C(/C=C/c1ccc(C(F)(F)F)cc1)NCCCCCN1CCC(c2c[nH]c3ccccc23)CC1` the XC50 was 683 nM.
`O=C(Nc1ccccc1)NC1CCN(CCC2(c3ccc(Cl)c(Cl)c3)COCN(C(=O)c3ccccc3)C2)C1` (stereo not drawn) gave an XC50 of 880 nM.
In the case of `COc1cccc2c1CCN(CCN1CCC(CNC(=O)c3ccc(-c4ccc(C#N)cc4)cc3)CC1)C2`, the XC50 was 758 nM.
`CC(=O)Nc1nc(C(=O)Nc2cccc(-c3ccc(-c4nc5cc(F)ccc5[nH]4)cc3)c2)cs1` showed an XC50 of 288 nM.
`CN(C)c1ccc(Br)c(Br)c1` was tested, and the XC50 was 975 nM.
`Cc1noc(-c2ccccc2)c1NC(=O)N1CCN(CCCCCCNC(=O)/C=C/c2ccc(Cl)c(Cl)c2)CC1` gave an XC50 of 884 nM.
For `O=C(NCc1cccc(F)c1)Nc1cccc(-c2cccc(-c3nc4ccccc4[nH]3)c2)c1`, the XC50 was 389 nM.
Compound `CNC(=O)COc1cc(C)c(C2CCN(CCCCNC(=O)c3ccc(-c4ccc(C(F)(F)F)cc4)cc3)CC2)cc1C` has an XC50 of 868 nM.
`O=C(/C=C/c1ccc(-c2nc3cc(F)c(F)cc3[nH]2)cc1)NCc1ccc(Cl)c(Cl)c1` gave an XC50 of 938 nM.
Compound `CC1CN=C(Nc2ncc(Cl)cc2Cl)N1` (stereo not drawn) has an XC50 of 237 nM.
For `COc1ccc2nccc(N3CCC(CCNCc4ccc5c(n4)NC(=O)CO5)CC3)c2c1`, the XC50 was 705 nM.
`FC(F)(F)COc1ccc(CNCCCCCCNCc2ccc(OCC(F)(F)F)c3ccccc23)c2ccccc12` was tested, and the XC50 was 400 nM.
`CCNc1cc(C(=O)N[C@@H](Cc2ccccc2)[C@H](O)CNCc2cccc(OC)c2C)cc(N2CCCCS2(=O)=O)c1` showed an XC50 of 518 nM.
With `Cc1cc(F)ccc1-c1nc(NCCCN2CCCC2=O)nc2c1ccc(=O)n2-c1c(F)cccc1F` the XC50 was 1020 nM.
`NC(=O)c1ccc(C(=O)Nc2cccc(-c3csc(-c4nc5ccccc5[nH]4)c3)c2)cc1` gave an XC50 of 351 nM.
`CC(=O)Nc1cccc(C(=O)Nc2cccc(-c3cccc(-c4nc5ccccc5[nH]4)c3)c2)c1` showed an XC50 of 594 nM.
Compound `CCCCN(CCCC)CCNC(=O)c1cccc(NC(=O)N2CCc3cc(SC)c(C(F)(F)F)cc32)c1` has an XC50 of 809 nM.
